In patent US9868737B2, “Pyridino[1,2-A]pyrimidone analogue used as MTOR/P13K inhibitor” (CISEN PHARMACEUTICAL CO., LTD., priority 2014, dated 2018):
Where two headings read alike, the source gives them in different places.

Test system: MCF-7 cells
Assay: In vitro test of cell activity (MCF-7 cells, insulin stimulation, ELISA-One fluorescence)
Format: cell-based
Conditions: for inhibition at 0.5 µM / IC50 / inhibition at 1 µM / inhibition at 0.25 µM: Homo sapiens, MCF7, MCF-7 cells; for inhibition at 0.5 µM: conc. 0.5 μM; for inhibition at 0.25 µM: conc. 0.25 μM
Summary of the method: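 MCF-7 cells, seeded at 2.5×10^4/well in 10% FBS medium, were given compound in serum-free medium for 2 h at one concentration (screen) or a series (IC50). Insulin stimulation followed at […] final for 30 min; lysates assayed by ELISA-One sandwich immunoassay with fluorescence read-out.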

[1] = conc. 1 μM, read-out: % inhibition AKT
[2] = conc. 1 μM, read-out: % inhibition p70s6k

IC50 (read-out: IC50 p-AKT) | IC50 (read-out: IC50 p-p70S6K) | Structure (SMILES) | inhibition at 0.5 µM (read-out: % inhibition AKT) | inhibition at 0.5 µM (read-out: % inhibition p70s6k) | other results
≤ 50 nM | 50 to 100 nM | COc1ncc(-c2ccc3ncc(OC)c(=O)n3c2)cc1NS(=O)(=O)c1ccccc1F [compound 107] | 94.5% | 91% | 
≤ 50 nM | 50 to 100 nM | COc1ncc(-c2ccc3ncc(C)c(=O)n3c2)cc1NS(=O)(=O)c1ccccc1Cl [compound 85] | 95.8% | 88.3% | 
50 to 100 nM | 100 to 250 nM | COc1ccc(S(=O)(=O)Nc2cc(-c3ccc4nccc(=O)n4c3)cnc2OC)cc1 [compound 24] |  |  | inhibition at 1 µM [1]: 94.6%; inhibition at 1 µM [2]: 93.2%
 |  | COc1ncc(-c2ccc3nccc(=O)n3n2)cc1NS(=O)(=O)c1ccc(F)cc1Cl [compound 78] | 72.6% | 32.6% | 
≤ 50 nM | 100 to 250 nM | COc1ncc(-c2ccc3ncc(N)c(=O)n3c2)cc1NS(=O)(=O)c1ccccc1F [compound 90] | 92.7% | 87.9% | 
50 to 100 nM | 100 to 250 nM | COCCOc1cnc2ccc(-c3cnc(OC)c(NS(=O)(=O)c4ccc(F)cc4F)c3)cn2c1=O [compound 175, 2,4-difluoro-N-(2-methoxy-5-(3-(2-methoxyethoxy)-4-oxo-4H-pyrido[1,2-a]pyrimidin-7-yl)pyridin-3-yl)benzsulfamide] |  |  | inhibition at 0.25 µM (read-out: % inhibition AKT): 75.2%; inhibition at 0.25 µM (read-out: % inhibition p70s6k): 65.4%
≤ 50 nM |  | COCOc1cnc2ccc(-c3cnc(OC)c(NS(=O)(=O)c4sc(C)nc4C)c3)cn2c1=O [compound 181] |  |  | 
 |  | COc1ncc(-c2cn3c(=O)ccnc3cc2F)cc1NS(=O)(=O)c1ccc(C(F)(F)F)cc1 [compound 118] | 27.8% | 11.5% | 
≤ 50 nM |  | COc1ncc(-c2ccc3ncc(OCC4(C)COC4)c(=O)n3c2)cc1NS(=O)(=O)c1sc(C)nc1C [compound 197] |  |  | 
 |  | CCc1ncc(-c2ccc3nccc(=O)n3c2)cc1NS(=O)(=O)c1ccc(F)cc1F [compound 18] |  |  | inhibition at 1 µM [1]: 85.7%; inhibition at 1 µM [2]: 46.2%
≤ 50 nM | 50 to 100 nM | COc1ncc(-c2ccc3ncc(Cl)c(=O)n3c2)cc1NS(=O)(=O)c1nc(C)c(C)s1 [compound 157] |  |  | inhibition at 0.25 µM (read-out: % inhibition AKT): 79.2%; inhibition at 0.25 µM (read-out: % inhibition p70s6k): 90.8%
100 to 250 nM |  | COc1ncc(-c2ccc3n[nH]c(=O)n3c2)cc1NS(=O)(=O)c1ccc(F)cc1F [compound 235] |  |  | 
 |  | COc1ncc(-c2ccc3ncc(-n4ccc(C)n4)c(=O)n3c2)cc1NS(=O)(=O)c1ccc(F)cc1F [compound 216, 2,4-difluoro-N-(2-methoxy-5-(3-(3-methyl-1H-pyrazol-1-yl)-4-oxo-4H-pyrido[1,2-a]pyrimidin-7-yl)pyridin-3-yl)benzsulfamide] |  |  | inhibition at 0.25 µM (read-out: % inhibition AKT): 34.1%; inhibition at 0.25 µM (read-out: % inhibition p70s6k): 31%
≤ 50 nM | 50 to 100 nM | COc1ncc(-c2ccc3ncc(Cl)c(=O)n3c2)cc1NS(=O)(=O)c1ccccc1 [compound 142] | 94.8% | 90.8% | 
≤ 50 nM | 50 to 100 nM | COc1ncc(-c2ccc3ncc(Cl)c(=O)n3c2)cc1NS(=O)(=O)c1ccccc1Cl [compound 136] | 95.5% | 87.2% | 
≤ 50 nM |  | COc1ncc(-c2ccc3ncc(Cl)c(=O)n3c2)cc1NS(=O)(=O)c1sc(Cl)nc1C [compound 168] |  |  | 
> 250 nM |  | COc1ncc(-c2ccc3ncc(NS(C)(=O)=O)c(=O)n3c2)cc1NS(=O)(=O)c1ccc(F)cc1F [compound 98] |  |  | 
≤ 50 nM |  | COc1ncc(-c2ccc3ncc(OCC4COC4)c(=O)n3c2)cc1NS(=O)(=O)c1ccccc1F [compound 256] |  |  | 
≤ 50 nM | 100 to 250 nM | COc1ncc(-c2ccc3ncc(C)c(=O)n3c2)cc1NS(=O)(=O)c1ccc(Cl)cc1F [compound 82] | 92.1% | 88.1% | 
> 250 nM |  | CNc1ncc(-c2ccc3ncc(OCCOC)c(=O)n3c2)cc1NS(=O)(=O)c1ccc(F)cc1F [compound 215] |  |  | 
 |  | COc1ncc(-c2ccc3nccc(=O)n3c2C)cc1NS(=O)(=O)c1ccc(C#N)cc1 [compound 59] | 59.7% | 26.5% | 
≤ 50 nM |  | COCCOc1cnc2ccc(-c3cnc(OC)c(NS(=O)(=O)c4sc(OC)nc4C)c3)cn2c1=O [compound 195] |  |  | 
 |  | COc1ncc(-c2ccc3ncc(-n4ccc(C)n4)c(=O)n3c2)cc1NS(=O)(=O)c1ccccc1Cl [compound 220] |  |  | inhibition at 0.25 µM (read-out: % inhibition AKT): 51.2%; inhibition at 0.25 µM (read-out: % inhibition p70s6k): 11%
100 to 250 nM |  | COCCOc1cnc2ccc(-c3cnc(OC)c(NS(=O)(=O)c4cc(F)c(F)cc4Cl)c3)cn2c1=O [compound 266] |  |  | 

IC50 (read-out: IC50 p-AKT) | IC50 (read-out: IC50 p-p70S6K) | Structure (SMILES) | inhibition at 0.5 µM (read-out: % inhibition AKT) | inhibition at 0.5 µM (read-out: % inhibition p70s6k) | other results
 |  | Cc1ncc(-c2ccc3nccc(=O)n3c2)cc1NS(=O)(=O)c1ccc(F)cc1F [compound 14] |  |  | % inhibition AKT (MCF-7 cells, conc. 1 μM): 81.4%; % inhibition p70s6k (MCF-7 cells, conc. 1 μM): 47.3%
≤ 50 nM | 50 to 100 nM | COc1ncc(-c2ccc3ncc(F)c(=O)n3c2)cc1NS(=O)(=O)c1ccc(F)cc1Cl [compound 62] | 90.2% | 90.8% | 
50 to 100 nM | 50 to 100 nM | COc1ncc(-c2ccc3ncc(Cl)c(=O)n3c2)cc1NS(=O)(=O)c1c(F)cccc1F [compound 148] |  |  | inhibition at 0.25 µM (read-out: % inhibition AKT): 88.9%; inhibition at 0.25 µM (read-out: % inhibition p70s6k): 86.3%
> 250 nM |  | COCCOc1ncc(-c2ccc3ncc(Cl)c(=O)n3c2)cc1NS(=O)(=O)c1ccc(F)cc1F [compound 231, N-[5-(3-chloro-4-oxo-4H-pyrido[1,2-a]pyrimidin-7-yl)-2-(2-methoxy-ethoxy)-pyridin-3-yl]-2,4-difluorobenzsulfamide] |  |  | 
50 to 100 nM | 100 to 250 nM | CCOc1cnc2ccc(-c3cnc(OC)c(NS(=O)(=O)c4ccc(F)cc4F)c3)cn2c1=O [compound 171, N-(5-(3-ethoxy-4-oxo-4H-pyrido[1,2-a]pyrimidin-7-yl)-2-methoxypyridin-3-yl)-2,4-difluorobenzsulfamide] |  |  | inhibition at 0.25 µM (read-out: % inhibition AKT): 76.3%; inhibition at 0.25 µM (read-out: % inhibition p70s6k): 73.4%
 |  | COc1ncc(-c2ccc3nccc(=O)n3c2C)cc1NS(=O)(=O)c1cc(F)ccc1F [compound 60] | 67.9% | 43.9% | 
≤ 50 nM | 100 to 250 nM | COc1ncc(-c2ccc3ncc(Cl)c(=O)n3c2)cc1NS(=O)(=O)c1ccc(F)c(F)c1 [compound 145] | 94.9% | 90.5% | 
 |  | COc1ncc(-c2cn3c(=O)ccnc3cc2C)cc1NS(=O)(=O)c1ccccc1F [compound 123] | -82.1% | 6.7% | 
 |  | COc1ncc(-c2cn3c(=O)ccnc3cc2C)cc1NS(=O)(=O)c1ccc(C#N)cc1 [compound 129] | -24.2% | 1.2% | 
100 to 250 nM | > 250 nM | COc1ncc(-c2ccc3nccc(=O)n3c2)cc1NS(=O)(=O)c1ccccc1F [compound 2] |  |  | inhibition at 1 µM [1]: 94.2%; inhibition at 1 µM [2]: 50.8%
50 to 100 nM | 100 to 250 nM | COc1ncc(-c2ccc3nccc(=O)n3c2)cc1NS(=O)(=O)c1ccccc1 [compound 12] |  |  | inhibition at 1 µM [1]: 95.4%; inhibition at 1 µM [2]: 91.5%
≤ 50 nM | 50 to 100 nM | COc1ncc(-c2ccc3ncc(OC)c(=O)n3c2)cc1NS(=O)(=O)c1ccc(F)cc1F [compound 103, 2,4-difluoro-N-(2-methoxy-5-(3-methoxy-4-oxo-4H-pyrido[1,2-a]pyrimidin-7-yl)pyridin-3-yl) benzsulfamide] | 94.5% | 89.4% | 
≤ 50 nM | ≤ 50 nM | COc1ncc(-c2ccc3ncc(F)c(=O)n3c2)cc1NS(=O)(=O)c1ccc(F)cc1C [compound 66] | 89% | 91.3% | 
≤ 50 nM |  | COc1ncc(-c2ccc3ncc(N)c(=O)n3c2)cc1NS(=O)(=O)c1sc(N)nc1C [compound 94] |  |  | 
 |  | COc1ncc(-c2ccc3nccc(=O)n3n2)cc1NS(=O)(=O)c1ccc(F)cc1F [compound 71, 2,4-difluoro-N-(2-methoxy-5-(4-oxo-4H-pyrimido[1,2-b]pyridazin-7-yl)pyridin-3-yl)benzsulfamide] | 63.2% | 20.7% | 
≤ 50 nM |  | COc1ncc(-c2ccc3ncc(OCCCF)c(=O)n3c2)cc1NS(=O)(=O)c1sc(C)nc1C [compound 201] |  |  | 
≤ 50 nM |  | COCCOc1cnc2ccc(-c3cnc(OC)c(NS(=O)(=O)c4ccc(F)cc4Br)c3)cn2c1=O [compound 279] |  |  | 
≤ 50 nM | ≤ 50 nM | COc1ncc(-c2ccc3ncc(Cl)c(=O)n3c2)cc1NS(=O)(=O)c1cccc(Cl)c1 [compound 141] | 96.1% | 88.1% | 
≤ 50 nM |  | COc1ncc(-c2ccc3ncc(Cl)c(=O)n3c2)cc1NS(=O)(=O)c1ccc(C)nc1C [compound 169] |  |  | 
 |  | COc1ncc(-c2ccc3nccc(=O)n3c2C)cc1NS(=O)(=O)c1ccccc1Cl [compound 54] | 83.1% | 50.8% | 
> 250 nM |  | COCCCOc1ncc(-c2ccc3ncc(Cl)c(=O)n3c2)cc1NS(=O)(=O)c1ccc(F)cc1F [compound 232] |  |  | 
 |  | COc1ncc(-c2ccc3nc(C)cc(=O)n3c2)cc1NS(=O)(=O)c1ccc(F)cc1Cl [compound 222] |  |  | inhibition at 0.25 µM (read-out: % inhibition AKT): -26.7%; inhibition at 0.25 µM (read-out: % inhibition p70s6k): 2%
≤ 50 nM | ≤ 50 nM | COc1ncc(-c2ccc3ncc(Cl)c(=O)n3c2)cc1NS(=O)(=O)c1sccc1C [compound 143] | 95.7% | 87.7% | 
≤ 50 nM | ≤ 50 nM | COCOc1cnc2ccc(-c3cnc(OC)c(NS(=O)(=O)c4ccc(F)cc4F)c3)cn2c1=O [compound 179] |  |  | 
